Assay results from ChEMBL document CHEMBL3769307, “Selective inhibitors of phosphodiesterases: therapeutic promise for neurodegenerative disorders” (Medchemcomm, 2015).

Legend:
[1] = biological target: Phosphodiesterase 4 (Homo sapiens, UniProt P27815+Q08499+Q07343+Q08493); assay: Inhibition of PDE4 (unknown origin); type: protein assay
[2] = biological target: cGMP-specific 3',5'-cyclic phosphodiesterase (Homo sapiens, UniProt O76074); assay: Inhibition of PDE5 (unknown origin)
[3] = Inhibition of bovine PDE2; parameters: species or system Bos taurus
[4] = biological target: 3',5'-cyclic-AMP phosphodiesterase 4D (Homo sapiens, UniProt Q08499); assay: Inhibition of PDE4D3 (unknown origin)
Chain of 3',5'-cyclic-AMP phosphodiesterase 4D (Q08499 whole entry): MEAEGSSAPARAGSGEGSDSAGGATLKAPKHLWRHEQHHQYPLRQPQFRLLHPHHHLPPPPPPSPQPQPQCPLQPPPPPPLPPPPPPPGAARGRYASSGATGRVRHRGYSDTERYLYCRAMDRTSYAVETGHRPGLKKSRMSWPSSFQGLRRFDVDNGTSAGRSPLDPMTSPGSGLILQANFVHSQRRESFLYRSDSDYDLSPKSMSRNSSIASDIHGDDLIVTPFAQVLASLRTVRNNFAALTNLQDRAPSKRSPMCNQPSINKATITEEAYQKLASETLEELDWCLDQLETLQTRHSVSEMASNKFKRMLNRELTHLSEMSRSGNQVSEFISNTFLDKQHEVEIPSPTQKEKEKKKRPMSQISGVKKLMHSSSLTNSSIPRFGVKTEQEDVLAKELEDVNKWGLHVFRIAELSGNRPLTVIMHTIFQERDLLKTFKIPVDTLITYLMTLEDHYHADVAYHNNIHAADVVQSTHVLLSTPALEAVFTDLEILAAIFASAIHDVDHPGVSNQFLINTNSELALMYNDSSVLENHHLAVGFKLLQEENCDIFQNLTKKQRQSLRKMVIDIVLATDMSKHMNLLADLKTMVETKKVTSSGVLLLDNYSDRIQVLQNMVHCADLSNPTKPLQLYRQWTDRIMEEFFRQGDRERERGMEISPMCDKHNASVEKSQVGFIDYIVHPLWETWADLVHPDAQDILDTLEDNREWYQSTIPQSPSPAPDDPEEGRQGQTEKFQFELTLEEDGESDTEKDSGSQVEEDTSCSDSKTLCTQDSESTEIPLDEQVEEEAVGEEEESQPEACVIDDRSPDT

[5] = Inhibition of PDE9 (unknown origin); parameters: species or system Homo sapiens
[6] = Inhibition of cGMP activated PDE2 (unknown origin); parameters: species or system Homo sapiens
[7] = biological target: High affinity 3',5'-cyclic-AMP phosphodiesterase 7A (Homo sapiens, UniProt Q13946); assay: Inhibition of PDE7A (unknown origin)
Chain of High affinity 3',5'-cyclic-AMP phosphodiesterase 7A (Q13946 whole entry): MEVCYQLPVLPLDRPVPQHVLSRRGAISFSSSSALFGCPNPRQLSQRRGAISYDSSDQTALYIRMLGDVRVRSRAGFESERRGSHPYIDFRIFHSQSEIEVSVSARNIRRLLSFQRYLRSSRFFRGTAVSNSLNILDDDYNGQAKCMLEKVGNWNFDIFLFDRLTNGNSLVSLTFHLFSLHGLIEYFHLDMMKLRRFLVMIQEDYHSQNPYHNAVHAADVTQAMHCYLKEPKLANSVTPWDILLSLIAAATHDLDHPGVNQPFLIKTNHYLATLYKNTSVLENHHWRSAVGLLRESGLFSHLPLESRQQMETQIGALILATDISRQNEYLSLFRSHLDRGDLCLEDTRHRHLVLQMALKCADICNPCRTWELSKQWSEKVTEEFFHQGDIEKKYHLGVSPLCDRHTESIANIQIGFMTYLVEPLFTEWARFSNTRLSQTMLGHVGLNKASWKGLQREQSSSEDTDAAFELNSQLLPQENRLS

[8] = Inhibition of cGMP stimulated pig PDE2A; parameters: species or system Sus scrofa

Row | SMILES | IC50 [1] [nM] | also measured
1 | COc1ccc(CNc2c(CO)cnc3c(N(C)C)cc(C#N)cc23)cc1Cl | – | IC50 [2]: 0.27 nM
2 | COc1ccc(CNc2c(CO)cnc3c(NCCN(C)C)cc(C#N)cc23)cc1Cl | – | IC50 [2]: 0.27 nM
3 | CCNc1cc(C#N)cc2c(NCc3ccc(OC)c(Cl)c3)c(CO)cnc12 | – | IC50 [2]: 0.27 nM
4 | COc1ccc(CNc2c(CO)cnc3c(NC4CC4)cc(C#N)cc23)cc1Cl | – | IC50 [2]: 0.27 nM
5 | COc1ccc(CNc2c(CO)cnc3c(N4CCOCC4)cc(C#N)cc23)cc1Cl | – | IC50 [2]: 0.27 nM
6 | COc1ccc(Cc2nc(O)c3c(C)nc([C@@H](CCCc4ccccc4)[C@@H](C)O)n3n2)cc1OC | – | IC50 [3]: 2 nM
7 | COc1ccc([C@@H]2CNC(=O)[C@@H](Cc3cccc(C)c3)C2)cc1OC1CCCC1 | – | IC50 [4]: 150 nM
8 | C[C@H](Cc1nn2c(-c3ccccc3Cl)ncc2c(=O)[nH]1)C(F)(F)F | – | IC50 [5]: 55 nM
9 | COc1ccc(Cc2nc3c(ncn3C(CCCc3ccccc3)C(C)=O)c(=O)[nH]2)cc1OC (centres undefined) | – | IC50 [6]: 0.6 nM
10 | O=c1c2ccccc2[nH]c(=S)n1-c1ccccc1 | – | IC50 [7]: 5.5 µM
11 | O=C(NC1CC1)c1cn(-c2cccc(-c3ccc([C@@H]4C[C@H]4C(=O)O)cc3)c2)c2ncccc2c1=O (relative stereo) | 0.57 | –
12 | O=C(NCC(F)(F)F)c1cn(-c2cccc(-c3ccc([C@@H]4C[C@H]4C(=O)O)cc3)c2)c2ncccc2c1=O (relative stereo) | 0.51 | –
13 | CC1(NC(=O)c2cn(-c3cccc(-c4ccc([C@@H]5C[C@H]5C(=O)O)cc4)c3)c3ncccc3c2=O)CC1 (relative stereo) | 0.58 | –
14 | O=C(NC1CCC1)c1cn(-c2cccc(-c3ccc([C@@H]4C[C@H]4C(=O)O)cc3)c2)c2ncccc2c1=O (relative stereo) | 0.52 | –
15 | O=C(NC1CC1)c1cn(-c2cccc(-c3ccccc3[C@@H]3C[C@H]3C(=O)O)c2)c2ncccc2c1=O (relative stereo) | 4.6 | –
16 | O=C(NC1CC1)c1cn(-c2cccc(-c3ccc([C@@H]4C[C@@H]4C(=O)O)cc3)c2)c2ncccc2c1=O (relative stereo) | 1.6 | –
17 | O=C(NC1CC1)c1cn(-c2cccc(-c3ccc([C@@H]4C[C@H]4c4nnn[nH]4)cc3)c2)c2ncccc2c1=O (relative stereo) | 0.55 | –
18 | O=C(NC1(O)CC1)c1cn(-c2cccc(-c3ccc([C@@H]4C[C@H]4C(=O)O)cc3)c2)c2ncccc2c1=O (relative stereo) | 17 | –
19 | CCCCCC[C@H]([C@H](C)O)n1cnc2c(N)ncnc21 (relative stereo) [(+)-EHNA] | 1700 | IC50 [8]: 2000 nM; IC50 [6]: 700 nM

Now from value to compound, other results behind:

Row | IC50 [1] [nM] | SMILES | also measured
20 | 0.88 | CC(C)(Cc1ccc(-c2cccc(-n3cc(C(=O)NC4CC4)c(=O)c4cccnc43)c2)cc1)C(=O)O | –
21 | 0.85 | CC(C)(CC(=O)O)c1ccc(-c2cccc(-n3cc(C(=O)NC4CC4)c(=O)c4cccnc43)c2)cc1 | –
22 | 0.54 | O=C(NC1CC1)c1cn(-c2cccc(-c3cccc([C@@H]4C[C@H]4C(=O)O)c3)c2)c2ncccc2c1=O | –
23 | 0.32 | CC(C)(c1cc(-c2cccc(-c3ccc([C@@H]4C[C@H]4C(=O)O)cc3)c2)c2ncccc2c1)S(C)(=O)=O (relative stereo) | –
24 | 0.53 | O=C(NC1CC1)c1cn(-c2cccc(-c3ccc([C@@H]4C[C@@H]4C(=O)O)c(F)c3)c2)c2ncccc2c1=O (relative stereo) | –
25 | 32 | CC(C)(C)NC(=O)c1cn(-c2cccc(-c3ccc([C@@H]4C[C@H]4C(=O)O)cc3)c2)c2ncccc2c1=O (relative stereo) | –
26 | 0.35 | O=C(NCC1CC1)c1cn(-c2cccc(-c3ccc([C@@H]4C[C@H]4C(=O)O)cc3)c2)c2ncccc2c1=O (relative stereo) | –
27 | 5.1 | O=C(NC1CC1)c1cn(-c2cccc(C#Cc3ccc[n+]([O-])c3)c2)c2ncccc2c1=O [MK-0873] | –
